The record followed here is ChEMBL document CHEMBL5137013 (Eur J Med Chem, 2022).

In general, IC50 refers to the midpoint of a concentration-inhibition curve. As usually defined, the Cmax is the highest concentration seen after dosing. One may read the inhibition as how much of the control response was suppressed. The term Tmax denotes the time at which the peak concentration occurs.

Data set [1] deals with A549. In words: Antimigratory activity against human A549 cells assessed as reduction in scratch wound recovery at 60 nM measured after 24 hrs by scratch wound healing assay relative to control. In kind it is functional. Details: scale not given: the % may be the effect or the level left.
Data set [2] deals with HT-29. Briefly: Cytotoxicity against human HT-29 cells assessed as reduction in cell viability measured after 24 hrs by MTT assay. It counts as functional, cell-based. To be noted: HT-29, 24 h.
Data set [3] deals with HeLa. In words: Cytotoxicity against human HeLa cells assessed as reduction in cell viability measured after 24 hrs by MTT assay. In kind it is functional, cell-based. (In general: Tetrazolium assays rely on reduction of a dye to a coloured formazan, in cell work by metabolically active cells.)
Data set [4] is described as follows: Cmax in Sprague-Dawley rat at 10 mg/kg, iv by HPLC-MS/MS analysis. Also on record: dose 10 mg/kg, route iv. It counts as ADME, organism-based. To be noted: in vivo.
Data set [5] relates to HT-29. In words: Induction of apoptosis in human HT-29 cells assessed as up regulation of Bcl-2 expression at 25 to 100 nM measured after 24 hrs by Western blot analysis. It counts as functional, cell-based. Conditions: dose 25-100 nM. In general terms: Immunoblotting shows a protein as a band on a membrane.
Data set [6] deals with A549. Briefly: Cytotoxicity against human A549 cells assessed as reduction in cell viability measured after 24 hrs by MTT assay. Conditions: A549, 24 h.
Data set [7] has as its system HUVEC. Briefly: Antiangiogenic activity in HUVEC assessed as inhibition of tube formation at 12.5 to 50 nM incubated for 24 hrs by matrigel assay. It counts as functional, cell-based. Conditions: Homo sapiens, dose 12.5-50 nM.
Data set [8] concerns HT-29. In words: Antitumor activity against human HT-29 cells xenografted in BALB/c nude mouse assessed as reduction in tumor weight at 10 mg/kg, ip administered as 2 days interval for 3 weeks and measured 3 weeks post-initial dosing relative to control. It counts as functional. Details: scale not given: the % may be the effect or the level left. On the technique in general: Xenograft models place foreign cells or tissue in a host animal.

Data set [9] concerns MCF7. In words: Cytotoxicity against human MCF7 cells assessed as reduction in cell viability measured after 24 hrs by MTT assay. To be noted: MCF7, 24 h.
For data set [10], the system named is HT-29. Briefly: Cell cycle arrest in human HT-29 cells assessed as effect on cdc25 expression at 25 to 100 nM measured after 24 hrs by Western blot analysis. In kind it is functional, cell-based. Conditions: dose 25-100 nM.
The target of data set [11] is T1, Tubulin (Homo sapiens) (UniProt P68371+Q9H4B7+P0DPH7+P68366+Q13509+Q71U36+P04350+Q3ZCM7+P07437+P68363+Q9BQE3+Q6PEY2+Q13885+Q9BVA1+Q9BUF5). Briefly: Induction of microtubule disruption in human HT-29 cells measured after 6 hrs by immunofluorescence assay. In kind it is cell-based. To be noted: dose 25-100 nM, DDE = dose-dependent effect.
In data set [12] the test system is HT-29. Briefly: Induction of apoptosis in human HT-29 cells assessed as increase in cleaved PARP expression at 25 to 100 nM measured after 24 hrs by Western blot analysis. In kind it is functional, cell-based. Conditions: dose 25-100 nM.
Data set [13] has as its system HT-29. In words: Induction of apoptosis in human HT-29 cells at 25 to 100 nM measured after 24 hrs by Annexin V-FITC/propidium iodide staining based flow cytometry. In kind it is functional, cell-based. To be noted: dose 25-100 nM.
Data set [14] can be described thus: Cytotoxicity against human A549/TxR cells assessed as reduction in cell viability measured after 24 hrs by MTT assay. In kind it is functional, cell-based.
The subject of data set [15] is HT-29. Briefly: Induction of apoptosis in human HT-29 cells assessed as down regulation of Bim expression at 25 to 100 nM measured after 24 hrs by Western blot analysis. It counts as functional, cell-based. Conditions: dose 25-100 nM.
For data set [16], the system named is HT-29. Briefly: Inhibition of colony formation in human HT-29 cells at 12.5 nM measured after 24 hrs by crystal violet staining based assay. In kind it is functional, cell-based.
The test system of data set [17] is HT-29. In words: Cell cycle arrest in human HT-29 cells assessed as effect on cdk7 expression at 25 to 100 nM measured after 24 hrs by Western blot analysis. It counts as functional, cell-based. To be noted: dose 25-100 nM.
Data set [18] is described as follows: Tmax in Sprague-Dawley rat at 10 mg/kg, iv by HPLC-MS/MS analysis. It counts as ADME, organism-based. Conditions: in vivo.
In data set [19] the target is T1, Tubulin (Homo sapiens). Briefly: Displacement of [3H] colchicine from tubulin (unknown origin) at 2.5 uM measured after 2 hrs by scintillation counting analysis relative to control. In kind it is protein-complex assay.

Each structure is given as a SMILES string. Active and inactive are the calls of the source. The calls are words filed in the database; no cut-off is given here.

`COC(=O)c1cc2c(cc1Nc1cc(OC)c(OC)c(OC)c1)OCCO2`: the values for the Activity in data set [1], in [8] and in [11] were 85.2%, 75.5% and “Dde”, respectively. Moreover, the IC50 in [2] was found to be 23 nM; in [3], 35 nM; in data set [6], 240 nM; in data set [9] it was 140 nM; in data set [14] it was 310 nM. This compound also returned a Cmax in data set [4] of 6880 ng/mL. The outcome in data set [5], in data set [10], in data set [12], in [13], in data set [15] and in data set [17] was Active. For the same compound, the inhibition entry in data set [7] and in data set [16] was “Active” each time. Moreover, the Tmax in data set [18] was 8.4 min. Further, the inhibition in data set [19] was determined as 77.6%.
